{"source": "patent US20220288077A1", "about": "“PROSTATITIS TREATMENT” (NATIONAL INSTITUTE OF BIOLOGICAL SCIENCES, priority 2019, published 2022)", "data": [{"test_system": "carrageenan-induced male rat prostate disease model", "experiment": "Carrageenan-induced male rat prostate disease model: representative RIP1, RIP3 and MLKL inhibitors", "assay_type": "in vivo", "conditions": "list after the methods of the example; protocols based on RIPA-56", "experimental": "Experimental protocols for the compounds of Table 1 were based on those used for RIPA-56. Each inhibitor was intraperitoneally or orally administrated to rat before carrageenan treatment, at the dose of 20 mg/kg to 100 mg/kg.\nEach inhibitor was intraperitoneally or orally administrated to rat before carrageenan treatment, at the dose of 20 mg/kg to 100 mg/kg.\nAll the SD rats were randomly divided into different groups (n=8-10): control group, model group, and compounds-treated groups. For injection of carrageenan or saline, rats were anesthetized with 4% chloral hydrate and were fixed in a supine position. […] A small midline incision was made in the sterile area, then the bladder and the prostate carefully exposed. With a 30-gauge needle, 50 ul sterile suspension of 3% carrageenan (Sigma, MO, USA) or saline (sham group) was injected into both right and left ventral lobes of the prostate gland. […] While an equal amount of solvents were intraperitoneally and orally injected to control rats.", "values": [{"smiles": "O=c1c2c3c(sc2ncn1Cc1ccccc1)CCC3", "note": "[3-benzyl-6,7-dihydro-3H-cyclopenta[4,5]thieno[2,3-d]pyrimidin-4(5H)-one]", "listed under heading Active RIP1 Inhibitors": "Active"}, {"smiles": "Cc1cccc2c(CC3NC(=O)N(C)C3=O)c[nH]c12", "note": "(centres unmarked) [3-methyl-5-((7-methyl-1H-indol-3-yl)methyl)imidazolidine-2,4-dione]", "listed under heading Active RIP1 Inhibitors": "Active"}, {"smiles": "O=C1CCCc2ccc(Br)cc2N1", "note": "[8-bromo-4,5-dihydro-1H-benzo[b]azepin-2(3H)-one]", "listed under heading Active RIP1 Inhibitors": "Active"}, {"smiles": "O=C(N1CCCC1c1cccc(F)c1)C1(C(F)(F)F)CCC1", "note": "(centres unmarked) [(2-(3-fluorophenyl)pyrrolidin-1-yl)(1-(trifluoromethyl)cyclobutyl)methanone]", "listed under heading Active RIP1 Inhibitors": "Active"}, {"smiles": "O=C(N1CCCC1c1cccc(F)c1)C1(C(F)(F)F)CCCC1", "note": "(centres unmarked) [(2-(3-fluorophenyl)pyrrolidin-1-yl)(1-(trifluoromethyl)cyclopentyl)methanone]", "listed under heading Active RIP1 Inhibitors": "Active"}, {"smiles": "CN1C(=O)N[C@H](Cc2c[nH]c3c(Cl)cccc23)C1=O", "note": "[(R)-5-((7-chloro-1H-indol-3-yl)methyl)-3-methylimidazolidine-2,4-dione]", "listed under heading Active RIP1 Inhibitors": "Active"}, {"smiles": "C=CC(C)(C)C(=O)N1C(=O)C[C@H]1c1ccccc1", "note": "[(S)-1-(2,2-dimethylbut-3-enoyl)-4-phenylazetidin-2-one]", "listed under heading Active RIP1 Inhibitors": "Active"}, {"smiles": "CCC(C)(C)C(=O)N1C(=O)C[C@H]1c1ccccc1", "note": "[(S)-1-(2,2-dimethylbutanoyl)-4-phenylazetidin-2-one]", "listed under heading Active RIP1 Inhibitors": "Active"}, {"smiles": "CC(=O)N1CCC(C(=O)N2N=CC[C@H]2c2cc(F)cc(F)c2)CC1", "note": "[(S)-1-(4-(5-(3,5-difluorophenyl)-4,5-dihydro-1H-pyrazole-1-carbonyl)piperidin-1-yl)ethanone]", "listed under heading Active RIP1 Inhibitors": "Active"}, {"smiles": "CC(=O)N1CCC(C(=O)N2N=CC[C@H]2c2ccccc2)CC1", "note": "[(S)-1-(4-(5-phenyl-4,5-dihydro-1H-pyrazole-1-carbonyl)piperidin-1-yl)ethanone]", "listed under heading Active RIP1 Inhibitors": "Active"}, {"smiles": "C#CC(C)(C)C(=O)N1CC[C@H]1c1ccccc1", "note": "[(S)-2,2-dimethyl-1-(2-phenylazetidin-1-yl)but-3-yn-1-one]", "listed under heading Active RIP1 Inhibitors": "Active"}, {"smiles": "CC(C)(C)C(=O)N1N=CC[C@H]1c1ccccn1", "note": "[(S)-2,2-dimethyl-1-(5-(pyridin-2-yl)-4,5-dihydro-1H-pyrazol-1-yl)propan-1-one]", "listed under heading Active RIP1 Inhibitors": "Active"}, {"smiles": "CN1C(=O)[C@@H](NC(=O)c2nnc(Cc3ccccc3)[nH]2)COc2ccccc21", "note": "[(S)-5-benzyl-N-(5-methyl-4-oxo-2,3,4,5-tetrahydrobenzo[b][1,4]oxazepin-3-yl)-4H-1,2,4-triazole-3-carboxamide]", "listed under heading Active RIP1 Inhibitors": "Active"}, {"smiles": "CN1C(=O)[C@@H](NC(=O)c2cc(Cc3ccccc3)on2)COc2ccc(-c3nnn[nH]3)cc21", "note": "[(S)-5-benzyl-N-(5-methyl-4-oxo-7-(1H-tetrazol-5-yl)-2,3,4,5-tetrahydrobenzo[b][1,4]oxazepin-3-yl)isoxazole-3-carboxamide]", "listed under heading Active RIP1 Inhibitors": "Active"}, {"smiles": "O=C(N[C@H]1COc2cc(Cl)ccc2NC1=O)c1nnc(Cc2ccccc2)[nH]1", "note": "[(S)-5-benzyl-N-(8-chloro-4-oxo-2,3,4,5-tetrahydrobenzo[b][1,4]oxazepin-3-yl)-4H-1,2,4-triazole-3-carboxamide]", "listed under heading Active RIP1 Inhibitors": "Active"}, {"smiles": "O=C(c1ccccc1)N1N=CC[C@H]1c1ccccc1", "note": "[(S)-phenyl(5-phenyl-4,5-dihydro-1H-pyrazol-1-yl)methanone]", "listed under heading Active RIP1 Inhibitors": "Active"}, {"smiles": "C[C@H](NC(=O)c1snnc1C1CC1)c1c(F)cccc1Cl", "note": "[(S)—N-(1-(2-chloro-6-fluorophenyl)ethyl)-4-cyclopropyl-1,2,3-thiadiazole-5-carboxamide]", "listed under heading Active RIP1 Inhibitors": "Active"}, {"smiles": "CN(c1ccc(NC(=O)Nc2ccc(OC(F)(F)F)cc2)cc1)c1ccnc(Nc2cccc(S(N)(=O)=O)c2)n1", "note": "[Compound 1, 3-((4-(methyl(4-(3-(4-(trifluoromethoxy)phenyl)ureido)phenyl)amino)pyrimidin-2-yl)amino)benzenesulfonamide]", "listed under heading Active MLKL Inhibitors": "Active"}, {"smiles": "Nc1ncnc2occ(-c3ccc(NC(=O)Nc4cc(C(F)(F)F)ccc4F)cc3)c12", "note": "[Cpd27, 1-(4-(4-aminofuro[2,3-d]pyrimidin-5-yl)phenyl)-3-(2-fluoro-5-(trifluoromethyl)phenyl)urea]", "listed under heading Active RIP1 Inhibitors": "Active"}, {"smiles": "CC(C)(C)c1nc(-c2cccc(NS(=O)(=O)c3c(F)cccc3F)c2F)c(-c2ccnc(N)n2)s1", "note": "[Dabrafenib, N-[3-[5-(2-amino-4-pyrimidinyl)-2-(1,1-dimethylethyl)-4-thiazolyl]-2-fluorophenyl]-2,6-difluoro-benzenesulfonamide]", "listed under heading Active RIP3 Inhibitors": "Active"}, {"smiles": "CN1C(=O)[C@@H](NC(=O)c2cc(Cc3ccccc3)on2)COc2ccccc21", "note": "[GSK481, (S)-5-benzyl-N-(5-methyl-4-oxo-2,3,4,5-tetrahydrobenzo[b][1,4]oxazepin-3-yl)isoxazole-3-carboxamide]", "listed under heading Active RIP1 Inhibitors": "Active"}, {"smiles": "CC(C)(C)C(=O)N1N=CC[C@H]1c1ccccc1", "note": "[GSK963, (S)-2,2-dimethyl-1-(5-phenyl-4,5-dihydro-1H-pyrazol-1-yl)propan-1-on]", "listed under heading Active RIP1 Inhibitors": "Active"}, {"smiles": "CN1C(=O)[C@@H](NC(=O)c2n[nH]c(Cc3ccccc3)n2)COc2ccccc21", "note": "[GSK2982772, (S)-5-benzyl-N-(5-methyl-4-oxo-2,3,4,5-tetrahydrobenzo[b]-[1,4]oxazepin-3-yl)-1H-1,2,4-triazole-3-carboxamide]", "listed under heading Active RIP1 Inhibitors": "Active"}, {"smiles": "CNC(=O)c1ccc2c(c1)ncn2-c1ccc(CC(=O)OC(C)(C)C)cc1", "note": "[GSK'840, tert-butyl 2-(4-(5-(methylcarbamoyl)-1H-benzo[d]imidazol-1-yl)phenyl)acetate]", "listed under heading Active RIP3 Inhibitors": "Active"}, {"smiles": "Cc1cc(-c2cnc(N)c3c(-c4ccc5scnc5c4)csc23)n(C)n1", "note": "[GSK'843, 3-(benzo[d]thiazol-5-yl)-7-(1,3-dimethyl-1H-pyrazol-5-yl)thieno[3,2-c]pyridin-4-amine]", "listed under heading Active RIP3 Inhibitors": "Active"}, {"smiles": "CC(C)S(=O)(=O)c1ccc2nccc(Nc3ccc4scnc4c3)c2c1", "note": "[GSK'872, N-(6-(isopropylsulfonyl)quinolin-4-yl)benzo[d]thiazol-5-amine]", "listed under heading Active RIP3 Inhibitors": "Active"}, {"smiles": "CCC(C)(C)C(=O)N(O)Cc1ccc(F)cc1F", "note": "[N-(2,4-Difluorobenzyl)-N-hydroxy-2,2-dimethylbutanamide]", "listed under heading Active RIP1 Inhibitors": "Active"}, {"smiles": "CCC(C)(C)C(=O)N(O)Cc1ccc(F)c(F)c1", "note": "[N-(3,4-Difluorobenzyl)-N-hydroxy-2,2-dimethylbutanamide]", "listed under heading Active RIP1 Inhibitors": "Active"}, {"smiles": "O=C(NCc1c(F)ccc(Cl)c1F)c1snnc1C1CC1", "note": "[N-(3-chloro-2,6-difluorobenzyl)-4-cyclopropyl-1,2,3-thiadiazole-5-carboxamide]", "listed under heading Active RIP1 Inhibitors": "Active"}, {"smiles": "CCC(C)(C)C(=O)N(O)Cc1ccc(F)cc1", "note": "[N-(4-Fluorobenzyl)-N-hydroxy-2,2-dimethylbutanamide]", "listed under heading Active RIP1 Inhibitors": "Active"}, {"smiles": "CCC(C)(C)C(=O)N(O)Cc1ccccc1", "note": "[N-Benzyl-N-hydroxy-2,2-dimethylbutanamide]", "listed under heading Active RIP1 Inhibitors": "Active"}, {"smiles": "CCC(C)(C)C(=O)N(O)Cc1ccc(F)c(F)c1F", "note": "[N-Hydroxy-2,2-dimethyl-N-(2,3,4-trifluorobenzyl)butanamide]", "listed under heading Active RIP1 Inhibitors": "Active"}, {"smiles": "CCC(C)(C)C(=O)N(O)Cc1cc(F)cc(F)c1F", "note": "[N-Hydroxy-2,2-dimethyl-N-(2,3,5-trifluorobenzyl)butanamide]", "listed under heading Active RIP1 Inhibitors": "Active"}, {"smiles": "CCC(C)(C)C(=O)N(O)Cc1cc(F)c(F)c(F)c1", "note": "[N-Hydroxy-2,2-dimethyl-N-(3,4,5-trifluorobenzyl)butanamide]", "listed under heading Active RIP1 Inhibitors": "Active"}, {"smiles": "CN1C(=O)C(Cc2c[nH]c3ccccc23)NC1=S", "note": "(centres unmarked) [Nec-1, 5-((1H-indol-3-yl)methyl)-3-methyl-2-thioxoimidazolidin-4-one]", "listed under heading Active RIP1 Inhibitors": "Active"}, {"smiles": "COc1nccnc1NS(=O)(=O)c1ccc(NC(=O)/C=C/c2ccc([N+](=O)[O-])s2)cc1", "note": "[Necrosulfonamide, (2E)-N-[4-[[(3-Methoxy-2-pyrazinyl)amino]sulfonyl]phenyl]-3-(5-nitro-2-thienyl)-2-propenamide]", "listed under heading Active MLKL Inhibitors": "Active"}, {"smiles": "Cc1ccc(CCCCN2C(=O)N[C@H](Cc3c[nH]c4c(Cl)cccc34)C2=O)cc1C#Cc1cnc2cccnn12", "note": "[Ponatinib-Nec1s, (R)-5-((7-chloro-1H-indol-3-yl)methyl)-3-(4-(3-(imidazo[1,2-b]pyridazin-3-ylethynyl)-4-methylphenyl)butyl)imidazolidine-2,4-dione]", "listed under heading Active RIP1 Inhibitors": "Active"}, {"smiles": "Cn1c(=O)c2c(nc(S(C)(=O)=O)n2C)n(C)c1=O", "note": "[TC13-4, 1,3,7-trimethyl-8-(methylsulfonyl)-1H-purine-2,6(3H,7H)-dione]", "listed under heading Active MLKL Inhibitors": "Active"}, {"smiles": "COc1ccc(OC)c(CS(=O)(=O)c2nc3c(c(=O)n(C)c(=O)n3C)n2C)c1", "note": "[TC13-58, (2,5-dimethoxybenzylsulfonyl)-1,3,7-trimethyl-1H-purine-2,6(3H,7H)-dione]", "listed under heading Active MLKL Inhibitors": "Active"}, {"smiles": "CCn1c(S(C)(=O)=O)nc2c1c(=O)n(C)c(=O)n2C", "note": "[TC13-74, 7-ethyl-1,3-dimethyl-8-(methylsulfonyl)-1H-purine-2,6(3H,7H)-dione]", "listed under heading Active MLKL Inhibitors": "Active"}, {"smiles": "C#CCn1c(=O)n(C)c(=O)c2c1nc(S(C)(=O)=O)n2C", "note": "[TC13-106, 1,7-dimethyl-8-(methylsulfonyl)-3-(prop-2-ynyl)-1H-purine-2,6(3H,7H)-dione]", "listed under heading Active MLKL Inhibitors": "Active"}]}]}
